From US8592405B2, “Synergistic antimicrobial composition” (Dow Global Technologies LLC, priority 2009, dated 2013)

Key:
Assay type in all cases: cell-based
Gleocapsa sp. (Gs) = experiment: Algal efficacy testing, modified ASTM 5589 (12-well, dry paint film); conditions: three weeks; for % inhibition: at the Total conc; for Total conc, ppm: total biocide in paint taken as minimum inhibitory concentration
Description: (§1) Samples of white acrylic latex paint free of biocides were prepared in 50 ml aliquots. Each biocide was post added to give the necessary active ingredient concentration in the paint. The total biocides concentrations tested were 750, 1500, 2500 and 5000 ppm. After biocides addition, each sample was hand mixed for a minimum of 30 sec, followed by a 3 min run on the paint shaker (RED DEVIL). Each of the paint samples as well as a control sample (containing no biocide) were used to prepare films on black plastic-vinyl chloride/acetate copolymer panels (LENETA, Mahwah, N.J.) using a 3 mil bird bar applicator. The panels were thoroughly dried for 5 days avoiding direct exposure to sunlight. Square discs (15 mm^2) were cut out from each panel and were used as the substrate for fungal and algal efficacy tests. This sample size allowed for an agar border when the sample disc was placed into the well of the test plate.
(§2) The appropriate media (BOLD'S 3N for Chlorophytes, BG-11 for Cyanobacteria, and PDA for fungi) were used to support microbial growth. The test plates were maintained at room temp (25° C.-26° C.), in a cycled light-dark environment, for 3 weeks for algae. Plates for fungal challenge tests were maintained at 30C for three weeks. At the end of incubation period the samples were scored for percent area covered by visible microbial growth.
ASTM 5589 is a standard accelerated test method for determining resistance of various coatings (including paints) to algal defacement. To accommodate for high-throughput screening, this method was scaled down from petri plates to 12-well plates. A single coupon was placed with a pair of sterile forceps at the center of the agar plug (on top) with the painted surface facing upwards. Each well was inoculated with 150 μl of organism (1×10^8 cfu/ml) making sure that the whole surface (paint film as well as the agar surrounding it) was evenly covered. The plates were incubated at room temp (25° C.-26° C.) with cyclic exposure to light (OTT-Lite model #OTL4012P, 40 Watt, 26 KLumen) and dark phases, for a period of three weeks. The total area covered was evaluated at the end of each week according to percent area covered in 5% increments. While rating the plates, notations were made for zones of inhibition.
(§3) The SI is calculated based on F. C. Kull et.

Trichoderma viride (Tv) = experiment: Fungal efficacy testing, modified ASTM 5590 (12-well, dry paint film); conditions: three weeks; for % inhibition: at the Total conc; for Total conc, ppm: total biocide in paint taken as minimum inhibitory concentration, 30 C
Description: as §1, §2
(§4) ASTM 5590 is a standard accelerated test method for determining resistance of various coatings (including paints) to fungal defacement. To accommodate for high-throughput screening, this method was scaled down from petri plates to 12-well plates. To set up the test, an agar plug was placed at the bottom of each well of the sterile 12-well plate. A single coupon was placed with a pair of sterile forceps at the center of the agar plug (on top) with the painted surface facing upwards. Each well was inoculated with 150 μl of organism (1×10^6 cfu/ml) making sure that the whole surface (paint film as well as the agar surrounding it) was evenly covered. The plates were incubated at 30° C. in presence of moisture, for a period of three weeks. The total percent area covered was evaluated and recorded at the end of each week after the 2nd week and recorded in increments of 5%.
as §3

[1] = system: An + Pf (Aspergillus niger + Penicillium funiculosum); experiment: Fungal efficacy testing, modified ASTM 5590 (6-well, mixed inoculum, Example 4); conditions: four weeks; for Total conc, ppm: An + Pf mixed inoculum, NE = no end point at the concentration tested; for % inhibition: An + Pf, at the Total conc
Description: as §3
(§5) A single or blend of biocides was post added into white acrylic latex paint free of biocides to give a maximum total active ingredient/s concentration tested. This paint was then diluted with a biocide free acrylic latex paint at concentrations range of 75 to 12.5% w/w to give desired concentrations for the testing. Depending on the type of biocide blends tested, the total biocides concentrations varies from 200 to 5000 ppm. After biocides addition or dilution each sample was hand mixed for at least a minute until uniformity is achieved. Each of the paint samples as well as a control sample (containing no biocide) were used to prepare films on black plastic-vinyl chloride/acetate copolymer panels (LENETA, Mahwah, N.J.) using a 3 mil bird bar applicator. The panels were thoroughly dried for at least 2 days avoiding direct exposure to sunlight. Square discs (0.5 inch^2, 13 mm^2) were cut out from each panel and were used as the substrate for fungal and algal efficacy tests. This sample size allowed for an agar border when the sample disc was placed into the well of the test plate. Each sample was tested in duplicate
as §2, with “for four” for “for 3”, “at 30 C” for “at 30C”, “for four” for “for three”, “of the” for “of”
as §4, with “6-well” for “12-well”, “upwards. Fungal inoculums were prepared by mixing equal concentrations (1×10^6 cfu/ml) and equal volumes (depending on number of samples to be tested) of like growing organisms. Cladosporium herbarum was mixed with Aureobasidium pullulans. Aspergillus niger was mixed with Penicillium funiculosum. Alternaria alternata was mixed with Trichoderma viride.” for “upwards.”, “400” for “150”, “organism mixture” for “organism”, “four” for “three”

[2] = system: Ch + Tv (Cladosporium herbarum + Trichoderma viride); experiment: as above; conditions: four weeks
Description: [The source words this procedure for another target and reports this target under the same test.] as §3, §5
as §2, with “for four” for “for 3”, “at 30 C” for “at 30C”, “for four” for “for three”, “of the” for “of”
as §4, with “6-well” for “12-well”, “upwards. Fungal inoculums were prepared by mixing equal concentrations (1×10^6 cfu/ml) and equal volumes (depending on number of samples to be tested) of like growing organisms. Cladosporium herbarum was mixed with Aureobasidium pullulans. Aspergillus niger was mixed with Penicillium funiculosum. Alternaria alternata was mixed with Trichoderma viride.” for “upwards.”, “400” for “150”, “organism mixture” for “organism”, “four” for “three”

SMILES	% inhibition (Gleocapsa sp. (Gs))	Total conc, ppm (Gleocapsa sp. (Gs))	% inhibition (Trichoderma viride (Tv))	Total conc, ppm (Trichoderma viride (Tv))	Total conc, ppm [1]	% inhibition [1]	Total conc, ppm ([2]; Ch + Tv mixed inoculum, NE = no end point at the concentration tested)	% inhibition ([2]; Ch + Tv, at the Total conc)
CCCCCCCCn1sc(Cl)c(Cl)c1=O [DCOIT, 4,5-dichloro-2-n-octyl-4-isothiazolin-3-one]	77.5%	2500 ppm	60%	2500 ppm	–	–	–	–
Cc1ccc(S(=O)(=O)C(I)I)cc1 [DIMTS, diiodomethyl-p-tolylsulfone]	80%	2500 ppm	90%	750 ppm	1250 ppm	100%	–	–
CN(C)C(=O)Nc1cccc(C(F)(F)F)c1 [Fluometuron, 1,1-dimethyl-3-(α,α,α-trifluoro-m-tolyl)urea]	–	–	–	–	5000 ppm	0%	5000 ppm	0%
